From ChEMBL document CHEMBL1201862, “PubChem BioAssay data set” (2004)
Several values for one entry are separate records, joined by “and”; a condition that tells them apart may be missing. Equal entries are not always repeated.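 Following 48 hours of exposure in 96-well plates, responses at five concentrations were used to interpolate endpoints linearly. Abbreviation: GI50, concentration required for 50% inhibition of growth.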 Activity calls are given as the source filed them. Rule as the data show it: active = GI50 up to about 1.1 µM and inactive = higher.

Columns and labels:
Test in all cases: DTP human tumour cell line panel, 48 h
ACHN = test system: ACHN
COLO 205 = test system: COLO 205
HCC 2998 = test system: HCC 2998
HCT-15 = test system: HCT-15
HL-60 = test system: HL-60
MDA-N = test system: MDA-N
NCI-H226 = test system: NCI-H226
NCI-H460 = test system: NCI-H460
RPMI-8226 = test system: RPMI-8226
SF-268 = test system: SF-268
SF-539 = test system: SF-539
SK-MEL-2 = test system: SK-MEL-2
SN12C = test system: SN12C
SNB-75 = test system: SNB-75
SR = test system: SR
TK-10 = test system: TK-10
UACC-257 = test system: UACC-257
A498 = test system: A498
BT-549 = test system: BT-549

| SMILES | GI50 (ACHN) | GI50 (COLO 205) | GI50 (HCC 2998) | GI50 (HCT-15) | GI50 (HL-60) | GI50 (MDA-N) | GI50 (NCI-H226) | GI50 (NCI-H460) | GI50 (RPMI-8226) | GI50 (SF-268) | GI50 (SF-539) | GI50 (SK-MEL-2) | GI50 (SN12C) | GI50 (SNB-75) | GI50 (SR) | GI50 (TK-10) | GI50 (UACC-257) | GI50 (A498) | GI50 (BT-549) |
| --- | --- | --- | --- | --- | --- | --- | --- | --- | --- | --- | --- | --- | --- | --- | --- | --- | --- | --- | --- |
| Cc1occc(=O)c1O [MALTOL] | > 100 µM (inactive) | > 100 µM (inactive) | > 100 µM (inactive) | 4.25 µM | > 100 µM (inactive) | > 100 µM (inactive) | > 100 µM (inactive) | > 100 µM (inactive) | > 100 µM (inactive) | > 100 µM (inactive) | > 100 µM (inactive) | > 100 µM (inactive) | 5 µM (inactive) | > 100 µM (inactive) | > 100 µM (inactive) | > 100 µM (inactive) | > 100 µM (inactive) | – | – |
| COC(=O)CCCC1(CCCC(=O)OC)CCCCCCCCC(CCCC(=O)OC)(CCCC(=O)OC)C(=O)C1=O | 40.2 µM (inactive) | > 100 µM (inactive) | > 100 µM (inactive) | > 100 µM | 2.17 µM (inactive) | > 100 µM (inactive) | > 100 µM (inactive) | 88.1 µM (inactive) | < 0.01 µM (active) | 19.2 µM (inactive) | 25.2 µM (inactive) | 28.9 µM (inactive) | > 100 µM (inactive) | 23.9 µM (inactive) | 20.4 µM (inactive) | > 100 µM (inactive) | > 100 µM (inactive) | > 100 µM (inactive) | – |
| CCOP(=O)(C=C=C(C)C)OCC | > 100 µM (inactive) | > 100 µM (inactive) | > 100 µM (inactive) | > 100 µM | 94.6 µM (inactive) | > 100 µM (inactive) | > 100 µM (inactive) | > 100 µM (inactive) | – | > 100 µM (inactive) | > 100 µM (inactive) | > 100 µM (inactive) | > 100 µM (inactive) | > 100 µM (inactive) | > 100 µM (inactive) | > 100 µM (inactive) | > 100 µM (inactive) | > 100 µM (inactive) | – |
| Cc1ccc2nc(-c3ccc(-c4nc5ccc(C)cc5o4)c(O)c3)oc2c1 | > 100 µM (inactive) | > 100 µM (inactive) | > 100 µM (inactive) | > 100 µM | > 100 µM (inactive) | > 100 µM (inactive) | > 100 µM (inactive) | > 100 µM (inactive) | > 100 µM (inactive) | > 100 µM (inactive) | > 100 µM (inactive) | > 100 µM (inactive) | > 100 µM (inactive) | > 100 µM (inactive) | > 100 µM (inactive) | > 100 µM (inactive) | – | > 100 µM (inactive) | – |
| NC(=S)N/N=c1\cc(C(=O)Nc2ccc([N+](=O)[O-])cc2[N+](=O)[O-])oc2ccccc12 | > 100 µM (inactive) | > 100 µM (inactive) | > 100 µM (inactive) | > 100 µM | > 100 µM (inactive) | > 100 µM (inactive) | 88.9 µM (inactive) | > 100 µM (inactive) | – | > 100 µM (inactive) | > 100 µM (inactive) | > 100 µM (inactive) | > 100 µM (inactive) | > 100 µM (inactive) | – | > 100 µM (inactive) | > 100 µM (inactive) | – | > 100 µM (inactive) |
| O=C(CNCc1ccccc1)Oc1c(Cl)c(Cl)c(Cl)c(Cl)c1Cl | 23.1 µM (inactive) | 25 µM (inactive) | 22.8 µM (inactive) | 25.4 µM | 23.8 µM (inactive) | – | 28.4 µM (inactive) | 38.9 µM (inactive) | – | 37.5 µM (inactive) | 32.3 µM (inactive) | 29.2 µM (inactive) | 31.2 µM (inactive) | 33.6 µM (inactive) | 21.8 µM (inactive) | 37.7 µM (inactive) | 23.1 µM (inactive) | – | 17.3 µM (inactive) |
| NS(=O)(=O)c1nnc(NC(=S)NC(=O)Nc2ccc(Cl)c(Cl)c2)s1 | – | 19.5 µM (inactive) | – | 19.7 µM | 26.9 µM (inactive) | – | 23.9 µM (inactive) | – | 25.8 µM (inactive) | 27.5 µM (inactive) | 2.39 µM (inactive) | 31.8 µM (inactive) | 26.7 µM (inactive) | 17.4 µM (inactive) | – | 34.9 µM (inactive) | 23.1 µM (inactive) | – | 21.3 µM (inactive) |
| CC1(C)OC2C(O)CN3CCS[C@H]3C2O1 (stereo partly drawn) | > 100 µM (inactive) | > 100 µM (inactive) | > 100 µM (inactive) | > 100 µM | > 100 µM (inactive) | – | > 100 µM (inactive) | > 100 µM (inactive) | > 100 µM (inactive) | > 100 µM (inactive) | – | > 100 µM (inactive) | – | > 100 µM (inactive) | > 100 µM (inactive) | > 100 µM (inactive) | > 100 µM (inactive) | > 100 µM (inactive) | > 100 µM (inactive) |
| O=C1c2ccccc2-c2c3c(cc4ccnc1c24)OCO3 [LIRIODENINE] | 3.94 µM (inactive) and 4.32 µM (inactive) | 4.79 µM (inactive) and 4.24 µM (inactive) | 4.51 µM (inactive) | 4.9 µM and 4.42 µM | 3 µM (inactive) | – | 4.69 µM (inactive) and 5.27 µM (inactive) | 3.59 µM (inactive) and 3.34 µM (inactive) | 3.2 µM (inactive) and 3.48 µM (inactive) | 6.14 µM (inactive) and 6.03 µM (inactive) | – | 4.19 µM (inactive) and 6 µM (inactive) | 4.98 µM (inactive) and 5.82 µM (inactive) | 4.18 µM (inactive) and 6 µM (inactive) | – | – | – | 3.48 µM (inactive) | – |
